Laboratory results: ChEMBL document CHEMBL5608163, “Structure modification of anoplin for fighting resistant bacteria” (Eur J Med Chem, 2024)
Values after ≈ are worked out from the molar mass of the structure shown. Square brackets hold non-standard residues; d marks the D form. Peptide text beside a SMILES is read from it. * marks the point of attachment. 2Nal = N[C@@H](Cc1ccc2ccccc2c1)C(=O)O; Pentadecanoyl = CCCCCCCCCCCCCCC(=O)*; NMeI = CC[C@H](C)[C@H](NC)C(=O)O; Tridecanoyl = CCCCCCCCCCCCC(=O)*; hIle = CC[C@H](C)C[C@H](N)C(=O)O; Cha = N[C@@H](CC1CCCCC1)C(=O)O; NMeL = CN[C@@H](CC(C)C)C(=O)O; Undecanoyl = CCCCCCCCCCC(=O)*; Nonanoyl = CCCCCCCCC(=O)*

Legend:
Enterococcus faecium = test: Antibacterial activity against vancomycin resistant Enterococcus faecium ATCC 700221 assessed as inhibition of bacterial growth incubated for 48 hrs by CLSI-based broth microdilution assay; type: functional
Staphylococcus aureus [1] = test: Antibacterial activity against methicillin-resistant Staphylococcus aureus ATCC 33591 assessed as reduction in bacterial growth incubated for 18 hrs by agar dilution method; type: functional
[2] = Hemolytic activity in human RBC assessed as hemolysis measured after 24 hrs; type: toxicity, cell-based, Erythrocyte; details: red blood cells
Escherichia coli [3] = test: Antibacterial activity against Escherichia coli ATCC 25922 assessed as reduction in microbial growth incubated for 16 to 20 hrs by CLSI protocol based Muller Hinton broth assay; type: functional; details: time 16-20 hrs
Pseudomonas aeruginosa [4] = test: Antibacterial activity against Pseudomonas aeruginosa ATCC 27853 assessed as reduction in microbial growth incubated for 16 to 20 hrs by CLSI protocol based Muller Hinton broth assay; type: functional; details: time 16-20 hrs
Erythrocyte = test: (§1) Hemolytic activity in mouse Red blood cells incubated for 1 hr by microplate reader assay; type: toxicity, cell-based; details: erythrocyte, 1 h
Bacillus subtilis [5] = test: Antibacterial activity against Bacillus subtilis ATCC 23857 assessed as reduction in bacterial growth incubated for 18 to 20 hrs by Mueller Hinton broth dilution method; type: functional; details: time 18-20 hrs
Staphylococcus aureus [6] = test: Antibacterial activity against Staphylococcus aureus ATCC 25923 assessed as reduction in bacterial growth incubated for 18 to 20 hrs by Mueller Hinton broth dilution method; type: functional; details: time 18-20 hrs
Pseudomonas aeruginosa [7] = test: Antibacterial activity against Pseudomonas aeruginosa ATCC 27853 assessed as reduction in bacterial growth incubated for 18 to 20 hrs by Mueller Hinton broth dilution method; type: functional; details: time 18-20 hrs
Escherichia coli [8] = test: Antibacterial activity against Escherichia coli ATCC 25922 assessed as reduction in bacterial growth incubated for 18 to 20 hrs by Mueller Hinton broth dilution method; type: functional; details: time 18-20 hrs
[9] = as §1; type: toxicity, cell-based, Erythrocyte; details: red blood cells
Pseudomonas aeruginosa [10] = test: Antibacterial activity against Pseudomonas aeruginosa ATCC 27853 assessed as reduction in bacterial cell growth measured for 18 hrs by Mueller-Hinton broth based two-fold serial dilution method; type: functional
Klebsiella pneumoniae = test: Antibacterial activity against Klebsiella pneumoniae ATCC 700603 assessed as reduction in bacterial cell growth measured for 18 hrs by Mueller-Hinton broth based two-fold serial dilution method; type: functional
Bacillus subtilis [11] = test: Antibacterial activity against Bacillus subtilis ATCC 23857 assessed as reduction in bacterial cell growth measured for 18 hrs by Mueller-Hinton broth based two-fold serial dilution method; type: functional
Staphylococcus aureus [12] = test: Antibacterial activity against Staphylococcus aureus ATCC 25923 assessed as reduction in bacterial cell growth measured for 18 hrs by Mueller-Hinton broth based two-fold serial dilution method; type: functional
Escherichia coli [13] = test: Antibacterial activity against Escherichia coli ATCC 25922 assessed as reduction in bacterial cell growth measured for 18 hrs by Mueller-Hinton broth based two-fold serial dilution method; type: functional

| MIC (Pseudomonas aeruginosa [10]) | MIC (Klebsiella pneumoniae) | MIC (Bacillus subtilis [11]) | MIC (Staphylococcus aureus [12]) | MIC (Escherichia coli [13]) | Structure (SMILES) | MIC (Enterococcus faecium) | MIC (Staphylococcus aureus [1]) | HC50 at 24 h [2] | MIC (Escherichia coli [3]) | MIC (Pseudomonas aeruginosa [4]) | HC50 at 1 h [9] | other results |
| --- | --- | --- | --- | --- | --- | --- | --- | --- | --- | --- | --- | --- |
|  |  |  |  |  | CC[C@H](C)[C@H](NC(=O)[C@H](Cc1c[nH]c2ccccc12)NC(=O)[C@H](CCCCN)NC(=O)[C@H](CC(C)C)NC(=O)[C@H](CC(C)C)NC(=O)CN)C(=O)N[C@@H](CCCCN)C(=O)N[C@@H](CCCCN)C(=O)N[C@@H](CC(C)C)C(=O)N[C@@H](CC(C)C)C(N)=O (H-GLLKWIKKLL-NH2) | 3.2 µM (≈ 3.87 µg/mL) | 2.5 µM (≈ 3.03 µg/mL) | 11.6 µM | 3.2 µM | 9.5 µM |  |  |
|  |  |  |  |  | CC[C@H](C)[C@H](NC(=O)[C@H](CCCNC(=N)N)NC(=O)[C@H](CCCCN)NC(=O)[C@H](Cc1ccc2ccccc2c1)NC(=O)[C@H](CC(C)C)NC(=O)CN)C(=O)N[C@@H](CCCCN)C(=O)N[C@H](C(=O)N[C@@H](CC(C)C)C(=O)N[C@@H](CC(C)C)C(N)=O)[C@@H](C)O (H-GL[2Nal]KRIKTLL-NH2) | 9.5 µM (≈ 11.8 µg/mL) | 28.4 µM (≈ 35.1 µg/mL) | 172 µM | 28.4 µM | 9.5 µM |  |  |
|  |  |  |  |  | CC[C@H](C)C[C@H](NC(=O)[C@H](CCCNC(=N)N)NC(=O)[C@H](CCCCN)NC(=O)[C@H](CC1CCCCC1)NC(=O)[C@H](CC(C)C)NC(=O)CN)C(=O)N[C@@H](CCCCN)C(=O)N[C@H](C(=O)N[C@@H](CC(C)C)C(=O)N[C@@H](CC(C)C)C(N)=O)[C@@H](C)O (H-GL[Cha]KR[hIle]KTLL-NH2) | 28.4 µM (≈ 34.3 µg/mL) | 28.4 µM (≈ 34.3 µg/mL) | 436 µM | 28.4 µM | 28.4 µM |  |  |
|  |  |  |  |  | CC[C@H](C)[C@H](NC(=O)[C@H](CCCNC(=N)N)NC(=O)[C@H](CCCCN)NC(=O)[C@H](CC(C)C)NC(=O)[C@H](Cc1ccc2ccccc2c1)NC(=O)CN)C(=O)N[C@@H](CCCCN)C(=O)N[C@H](C(=O)N[C@@H](CC(C)C)C(=O)N[C@@H](CC(C)C)C(N)=O)[C@@H](C)O (H-G[2Nal]LKRIKTLL-NH2) | 15.8 µM (≈ 19.6 µg/mL) | 15.8 µM (≈ 19.6 µg/mL) | 52.8 µM | 15.8 µM | 9.5 µM |  |  |
|  |  |  |  |  | CC[C@H](C)C[C@H](NC(=O)[C@H](CCCNC(=N)N)NC(=O)[C@H](CCCCN)NC(=O)[C@H](CC(C)C)NC(=O)[C@H](CC1CCCCC1)NC(=O)CN)C(=O)N[C@@H](CCCCN)C(=O)N[C@H](C(=O)N[C@@H](CC(C)C)C(=O)N[C@@H](CC(C)C)C(N)=O)[C@@H](C)O (H-G[Cha]LKR[hIle]KTLL-NH2) | 15.8 µM (≈ 19.1 µg/mL) | 85.3 µM (≈ 103 µg/mL) | 195 µM | 25 µM | 28.4 µM |  |  |
|  |  |  |  |  | CC(C)C[C@@H](NC(=O)[C@@H](CC(C)C)NC(=O)[C@@H](CCCCN)NC(=O)[C@@H](CCCCN)NC(=O)[C@@H](Cc1c[nH]c2ccccc12)NC(=O)[C@@H](Cc1c[nH]c2ccccc12)NC(=O)[C@@H](CCCCN)NC(=O)[C@@H](CC(C)C)NC(=O)[C@@H](CC(C)C)NC(=O)[C@H](N)CCCCN)C(N)=O (H-[dK][dL][dL][dK][dW][dW][dK][dK][dL][dL]-NH2) |  |  |  |  |  |  | HC10 (Erythrocyte): > 200 µM; MIC (Bacillus subtilis [5]): 4 µM (≈ 5.42 µg/mL); MIC (Staphylococcus aureus [6]): 8 µM (≈ 10.8 µg/mL); MIC (Pseudomonas aeruginosa [7]): 8 µM (≈ 10.8 µg/mL); MIC (Escherichia coli [8]): 64 µM (≈ 86.7 µg/mL) |
| 32 µM (≈ 42.3 µg/mL) | > 128 µM | 8 µM (≈ 10.6 µg/mL) | 128 µM (≈ 169 µg/mL) | 128 µM (≈ 169 µg/mL) | CCCCCCCCC(=O)NCC(=O)N[C@@H](CC(C)C)C(=O)N(C)[C@@H](CC(C)C)C(=O)N[C@@H](CCCCN)C(=O)N[C@@H](CCCNC(=N)N)C(=O)N(C)[C@H](C(=O)N[C@@H](CCCCN)C(=O)N[C@H](C(=O)N[C@@H](CC(C)C)C(=O)N[C@@H](CC(C)C)C(N)=O)[C@@H](C)O)[C@@H](C)CC (Nonanoyl-GL[NMeL]KR[NMeI]KTLL-NH2) |  |  |  |  |  | > 256 µM |  |
| 16 µM (≈ 22.5 µg/mL) | 16 µM (≈ 22.5 µg/mL) | 4 µM (≈ 5.62 µg/mL) | 8 µM (≈ 11.2 µg/mL) | 16 µM (≈ 22.5 µg/mL) | CCCCCCCCCCCCCCC(=O)NCC(=O)N[C@@H](CC(C)C)C(=O)N(C)[C@@H](CC(C)C)C(=O)N[C@@H](CCCCN)C(=O)N[C@@H](CCCNC(=N)N)C(=O)N(C)[C@H](C(=O)N[C@@H](CCCCN)C(=O)N[C@H](C(=O)N[C@@H](CC(C)C)C(=O)N[C@@H](CC(C)C)C(N)=O)[C@@H](C)O)[C@@H](C)CC (Pentadecanoyl-GL[NMeL]KR[NMeI]KTLL-NH2) |  |  |  |  |  | 64 µM |  |
| 8 µM (≈ 11 µg/mL) | 32 µM (≈ 44.1 µg/mL) | 4 µM (≈ 5.51 µg/mL) | 4 µM (≈ 5.51 µg/mL) | 8 µM (≈ 11 µg/mL) | CCCCCCCCCCCCC(=O)NCC(=O)N[C@@H](CC(C)C)C(=O)N(C)[C@@H](CC(C)C)C(=O)N[C@@H](CCCCN)C(=O)N[C@@H](CCCNC(=N)N)C(=O)N(C)[C@H](C(=O)N[C@@H](CCCCN)C(=O)N[C@H](C(=O)N[C@@H](CC(C)C)C(=O)N[C@@H](CC(C)C)C(N)=O)[C@@H](C)O)[C@@H](C)CC (Tridecanoyl-GL[NMeL]KR[NMeI]KTLL-NH2) |  |  |  |  |  | 64 µM |  |
| 8 µM (≈ 10.8 µg/mL) | 64 µM (≈ 86.4 µg/mL) | 4 µM (≈ 5.4 µg/mL) | 16 µM (≈ 21.6 µg/mL) | 16 µM (≈ 21.6 µg/mL) | CCCCCCCCCCC(=O)NCC(=O)N[C@@H](CC(C)C)C(=O)N(C)[C@@H](CC(C)C)C(=O)N[C@@H](CCCCN)C(=O)N[C@@H](CCCNC(=N)N)C(=O)N(C)[C@H](C(=O)N[C@@H](CCCCN)C(=O)N[C@H](C(=O)N[C@@H](CC(C)C)C(=O)N[C@@H](CC(C)C)C(N)=O)[C@@H](C)O)[C@@H](C)CC (Undecanoyl-GL[NMeL]KR[NMeI]KTLL-NH2) |  |  |  |  |  | > 256 µM |  |
